The source of these data is patent US20080220083A1, “Pharmaceutical Agent Comprising Blood Components <10 Kda And Their Use For Prophylaxis And Treatment Of Defects Of The Immune System” (priority 2004, published 2008).

The subject of the data set is guinea pig T lymphocytes. As to the kind of experiment: rosette test on guinea pig T lymphocytes in immunosuppressed guinea pigs. It is filed as in vivo. How it is done:
The composition of the invention was also tested in vivo in various animal systems. Using the rosette test on guinea pig T lymphocytes, the state of cellular immunity under the influence of the composition according to the invention in combination with Oxoplatin, Campto, Taxol and Eloxatin was investigated. In each test, the improvement of the T lymphocyte state in immunosuppressed guinea pigs after administration of the composition according to the invention was tested. Prior to testing, the level of T lymphocytes in the guinea pigs was determined using the rosette test, and subsequently, the decrease in the amount of T lymphocytes caused by the immunosuppressant Azathioprin was determined. A second determination of the T lymphocytes was made seven days after application of Azathioprin. This was followed by subcutaneous application of the composition of the invention into the laboratory animals. The last determination of the T lymphocyte count in the guinea pigs was made 14 to 19 days after application of the composition according to the invention.

Each structure is given as a SMILES string.

Consider `CCc1c2c(nc3ccc(OC(=O)N4CCC(N5CCCCC5)CC4)cc13)-c1cc3c(c(=O)n1C2)COC(=O)[C@]3(O)CC` [Campto], for which the “drop in production of rosettes following application of the cytostatic agent” value (“drop in production” for short) (guinea pigs, rosette test) was 23%.
Take `CC(=O)O[C@H]1C(=O)[C@@]2(C)[C@H]([C@H](OC(=O)c3ccccc3)[C@]3(O)C[C@H](OC(=O)[C@H](O)[C@@H](NC(=O)c4ccccc4)c4ccccc4)C(C)=C1C3(C)C)[C@]1(OC(C)=O)CO[C@@H]1C[C@@H]2O` [Taxol]: under “guinea pig, in vivo”, the “drop in production” value came to 16%.
As to `O=C1[O][Pt]2([NH][C@@H]3CCCC[C@H]3[NH]2)[O]C1=O` [Eloxatin], for the setting “guinea pig, in vivo”, the “drop in production” value was determined as 22%.
In the case of `N.N.[Cl-].[Cl-].[OH-].[OH-].[Pt+4]` [Oxoplatin], the “drop in production” value (guinea pig, in vivo) is on record as “about 30%”.
